Results published in patent US8349889B2, “Skin-care preparations containing mupirocin and betamethasone dipropionate” (Laboratorios Dermatologicos Darier, S.A. DE C.V., priority 2005, dated 2013).
Values joined by “and” are separate entries in the source; they are usually repeats but may differ in a detail not shown here. Equal entries are not always repeated.

Legend:
[1] = Active evaluation (USP23 NF/21) of white petrolatum ointment base formula, three samples; type: physicochemical; conditions: Samples 1-3 from different parts of the vessel, specification 90.0 to 110.0%
Description: As for the ointment base determination, an ointment base having the following components was tested: white petrolatum (carrier), NF 85 mineral oil (texture and appearance modifier), PEG 40 hydrogenated castor oil (solvent), glycerin (moistener), butyl hydroxy toluene (antioxidant), methyl paraben and propyl paraben (preservatives), mupirocin and betamethasone dipropionate (active ingredients). The manufacture process was the following: In an appropriate size vessel the white petrolatum, mineral oil and glycerin were placed, this mixture was heated up to a temperature of 75° C. and then the butyl hydroxy toluene with the parabens was dissolved; separately in other suitable size vessel the PEG 40 hydrogenated castor oil was placed, heated up to a 60° C. temperature and mupirocin and betamethasone dipropionate were solved therein; when both mixtures were at 60° C. they were mixed and the final product was obtained after lowering the temperature with constant mixing until reaching ambient temperature.
(§1) Once the product was obtained three samples were analyzed, collected from different parts of the vessel containing the product, by Active Evaluation techniques reported for each of them in the individual monographs included in USP23 NF/21.

[2] = Incompatibility tests, active evaluation immediately after preparation; type: physicochemical; design: unit not given here; conditions: for Active evaluation, Test 1: actives + PEG 40 hydrogenated castor oil, analysed immediately after preparation; for Active evaluation, Test 2: as Test 1 + butyl hydroxy toluene; for Active evaluation, Test 3: as Test 2 + propyl paraben; for Active evaluation, Test 4: as Test 3 + methyl paraben; for Active evaluation, Test 5: as Test 4 + glycerin; for Active evaluation, Test 6: as Test 5 + mineral oil; for Active evaluation, Test 7: as Test 6 + white petrolatum
Description: In order to test the possible incompatibility of mupirocin with one of the excipients the following tests reported in Table No. 4 were performed and the results are the following: [table]

[3] = Active evaluation (USP23 NF/21) of polyethylene glycol based formula, three samples; type: physicochemical; conditions: formula with PEG 40 hydrogenated castor oil, polyethylene glycol 600, PEG 150 distearate, methyl paraben; Samples 1-3; specification 90.0 to 110.0%
Description: Taking the experience that mupirocin and betamethasone dipropionate are soluble at 60° C. in PEG 40 hydrogenated castor oil and in polyethylene glycol 600 (according to Table No. 2), a formulation having the following ingredients is proposed: mupirocin and betamethasone dipropionate (active ingredients), PEG 40 hydrogenated castor oil (cosolvent), polyethylene glycol 600 (balance excipient or carrier), PEG 150 distearate (thickener) and methyl paraben (preservative). The manufacturing process was the following: In an appropriate size vessel the polyethylene glycol 600 and PEG 40 hydrogenated castor oil were placed, this mixture was heated up to a temperature of 70° C. and then the methyl paraben, mupirocin and betamethasone dipropionate were dissolved; once all the above ingredients were dissolved, the temperature was lowered with constant mixing until reaching 60° C.; it was then added the PEG 150 distearate and continued mixing until the mixture was homogenous; the final product was obtained after lowering the temperature with constant mixing until reaching ambient temperature.
as §1

[4] = Bactericide action tests; conditions: at the concentrations obtained in a 2% topical formulation
[5] = Simple incorporation of the active in white petrolatum at 60° C.; type: physicochemical; conditions: incorporated in white petrolatum at 60° C.; cream color gummy hard precipitate forms
Description: According to the results it can be concluded that mupirocin in the presence of white petrolatum undergoes a possible chemical degrading. It then followed a simple incorporation of the active in the white petrolatum at a temperature of 60° C. and it was seen that immediately a cream color precipitate forms having a gummy appearance and hard. […] Therefore, this ointment base with mupirocin is discarded.

Row | Structure (SMILES) | Evaluation Results [1] | Active evaluation, Test 1 [2] | Active evaluation, Test 2 [2] | Active evaluation, Test 3 [2] | Active evaluation, Test 4 [2] | Active evaluation, Test 5 [2] | Active evaluation, Test 6 [2] | Active evaluation, Test 7 [2] | Evaluation Results [3] | bactericide action [4] | Compatibility with white petrolatum [5]
1 | CCC(=O)OCC(=O)[C@@]1(OC(=O)CC)[C@@H](C)C[C@H]2[C@@H]3CCC4=CC(=O)C=C[C@]4(C)[C@@]3(F)[C@@H](O)C[C@@]21C [Betamethasone dipropionate] | 100.6% and 100.2% | 100.2 | 100.3 | 100.2 | 99.8 | 100.2 | 100.4 | 99.3 | 99.8% and 100.3% and 100.1% |  | 
2 | C/C(=C\C(=O)OCCCCCCCCC(=O)O)C[C@@H]1OC[C@H](C[C@@H]2O[C@H]2[C@@H](C)[C@H](C)O)[C@@H](O)[C@H]1O [Mupirocin] | 70.5% and 71.2% and 70.7% | 98.8 | 99.3 | 98.7 | 98.9 | 99.0 | 98.8 | 69.8 | 98.7% and 99.1% and 99.4% | has bactericide action | incompatible with white petrolatum
